Like-named read-outs stand apart in the source and are kept apart here.
How the values were obtained:
[1] = system: patients with acute ischemic stroke treated with intravenous thrombolysis; test: Neurological outcome (NIHSS score); format: in vivo, human; settings: for mean lowering of the NIHSS score, estimate in brackets / mean lowering (improvement) of the NIHSS score: after adjustment for thrombectomy
Description: (§1) Occurrence and severity of hemorrhagic transformation, intracerebral hemorrhage and cerebral edema on post-treatment computer tomography (CT) or magnetic resonance imaging (MR) were among secondary outcomes. Others were neurological outcome at 2 hours, 24 hours and 7 days after initiation of intravenous thrombolysis, functional outcome at 3 months and infarct volume at 7 days. Infarct volume evaluation will be addressed in a following publication.
(§2) Clinical assessments, including determination of the NIHSS score were performed before intravenous thrombolysis and start of study treatment (baseline), 2 hours (day 0), day 1 and then daily until day 7. A final NIHSS score was included in the 3 months follow up examination. Assessment of any adverse event was done daily from day 0 to day 7, and finally at 3 months. CT scan was performed at baseline, 24 hours (accepted interval 22-36 hours) and, optionally, at 7 days, MRI at 24 h (accepted interval as for CT) and at 7 days. Definitions of hemorrhagic transformations, parenchymatous hemorrhages and edema are described in an earlier publication R1 and also listed in Table 1. At three months functional status was evaluated using the modified Rankin Scale (mRS) score. The three months follow up examinations were performed blindly at a different hospital than the one responsible for the acute treatment.
When looking at separate time points, linear regression with robust standard errors was used, while adjusting for thrombectomy. […] The choice of using AR1 correlation was made by comparing the Akaike Information Criterion to a model without AR1 correlation. […] The association between treatment groups and functional independence was analyzed using odds ratios. The statistical software Stata v.13 was used.

[2] = system: patients with acute ischemic stroke treated with intravenous thrombolysis; settings: Imatinib treated patients
Description: as §1
as §2, with “Definitions of hemorrhagic transformations, parenchymatous hemorrhages and edema are described in an earlier publication R1 and also listed in Table 1.” left out, “The three months follow up examinations were performed blindly at a different hospital than the one responsible for the acute treatment.” left out
When looking at separate time points, linear regression with robust standard errors was used, while adjusting for thrombectomy. […] The association between treatment groups and functional independence was analyzed using odds ratios. […]

[3] = system: patients with acute ischemic stroke treated with intravenous thrombolysis; test: Cerebral edema on post-treatment CT or MR; format: in vivo, human
Description: as §1

clinical = settings: human, plasma, po
[4] = system: patients with acute ischemic stroke treated with intravenous thrombolysis; test: Hemorrhagic transformations and parenchymatous hemorrhages on post-treatment CT or MR; format: in vivo, human
Description: as §1

[5] = oral
Bcr-Abl tyrosine kinase = settings: more potent than Imatinib; cited from earlier work

Cc1ccc(NC(=O)c2ccc(CN3CCN(C)CC3)cc2)cc1Nc1nccc(-c2cccnc2)n1 [Imatinib]
improvement on the NIHSS per 100 mg Imatinib ([1]; after adjustment for the effect of thrombectomy): 0.6 points
lowering of the adjusted mean NIHSS score compared to control, estimate in brackets ([1]; high dose, 3 months): −4.81
lowering of the adjusted mean NIHSS score compared to control ([1]; high dose, 3 months, p<0.019): 5 points
lowering of the adjusted mean NIHSS score compared to control, estimate in brackets ([1]; high dose, 7 days): −5.68
lowering of the adjusted mean NIHSS score compared to control ([1]; high dose, 7 days, p<0.019): 6 points
mean lowering of the NIHSS score, estimate in brackets ([1]; high dose): −4.94
mean lowering (improvement) of the NIHSS score ([1]; high dose, p<0.012): 5 points
lowering of the adjusted mean NIHSS score compared to control ([1]; high dose, day 1, p<0.018): 5 points
mean lowering of the NIHSS score, estimate in brackets ([1]; low dose): −2.30
mean lowering (improvement) of the NIHSS score ([1]; low dose, p<0.259): 2 points
mean lowering of the NIHSS score, estimate in brackets ([1]; medium dose): −3.05
mean lowering (improvement) of the NIHSS score ([1]; medium dose, p<0.106): 3 points
neurological outcome ([1]; treatment with Imatinib vs control): significantly improved neurological outcome
severe disability (5 points on mRS) or death (6 points) [2]: did not occur
number of cerebral edema (CED 1-3) ([3]; high dose): to
patients with the mildest form of edema, CED 1 ([3]; high dose): to
patients with CED 1 at follow up ([3]; initiation of Imatinib within 5 hours after stroke onset, high dose group, of 5 patients): 2
patients with CED 1 or 2 ([3]; initiation of Imatinib within 5 hours after stroke onset, low dose, of 8 patients): 4
patients with CED 1 or 2 ([3]; initiation of Imatinib within 5 hours after stroke onset, medium dose, of to patients): 5
number of cerebral edema (CED 1-3) ([3]; low dose): 6
patients with the mildest form of edema, CED 1 ([3]; low dose): 4
moderately severe edema (CED-2) ([3]; low dose group): Two
moderately severe edema (CED-2) ([3]; medium dose): 1
number of cerebral edema (CED 1-3) ([3]; medium dose): 8
patients with the mildest form of edema, CED 1 ([3]; medium dose): 7
patients with CED 1 ([3]; reperfusion treatment completed within 4.5 hours, high dose group, of 7 patients): 4
patients with CED 1 or 2 ([3]; reperfusion treatment completed within 4.5 hours, low dose, of nine): 4
patients with CED 1 or 2 ([3]; reperfusion treatment completed within 4.5 hours, medium dose, of 11): 6
concentration at 3 h (clinical; 400 mg): 996 ng/mL
concentration at 3 h (clinical; 600 mg): 1570 ng/mL
concentration at 3 h (clinical; 800 mg): 1730 ng/mL
number of hemorrhagic transformations ([4]; high dose): 3
parenchymatous hemorrhages, PH1 type ([4]; high dose): one
remote parenchymatous hemorrhages of the milder grade (PHr1) ([4]; high dose group): 3
hemorrhages reported ([4]; initiation of Imatinib within 5 hours after stroke onset, high dose group, of 5 treated): no hemorrhages
hemorrhages reported ([4]; initiation of Imatinib within 5 hours after stroke onset, low dose group, of 8 treated): 4
hemorrhages reported ([4]; initiation of Imatinib within 5 hours after stroke onset, medium dose, of to treated): 5
number of hemorrhagic transformations ([4]; low dose group): 6
remote parenchymatous hemorrhages of the milder grade (PHr1) ([4]; low dose group): one
number of hemorrhagic transformations ([4]; medium dose): 7
parenchymatous hemorrhages, PH2 ([4]; medium dose): one
remote parenchymatous hemorrhages of the milder grade (PHr1) ([4]; medium dose group): one
hemorrhages reported ([4]; reperfusion treatment completed within 4.5 hours, high dose group, of 7 treated): no hemorrhages
hemorrhages reported ([4]; reperfusion treatment completed within 4.5 hours, low dose, of 9): 5
hemorrhages reported ([4]; reperfusion treatment completed within 4.5 hours, medium dose, of 11 treated): 6
mean plasma concentration of Imatinib, Day 0-Day 6 ([5]; 400 mg daily): 530 ng/mL
mean plasma concentration of Imatinib, Day 0-Day 6 ([5]; 600 mg daily): 1094 ng/mL
mean plasma concentration of Imatinib, Day 0-Day 6 ([5]; 800 mg daily): 2054 ng/mL

Cc1cn(-c2cc(NC(=O)c3ccc(C)c(Nc4nccc(-c5cccnc5)n4)c3)cc(C(F)(F)F)c2)cn1 [Nilotinib]
potency relative to Imatinib in inhibiting Bcr-Abl tyrosine kinase activity (Bcr-Abl tyrosine kinase): 10-30 fold

From patent US10953010B2 (HAMRA INVEST AB, priority 2016, dated 2021)
